Laboratory results published in publication PMC7413074 (Journal of pharmacy & pharmaceutical sciences : a …, 2019).
Where two headings read alike, the source gives them in different places.

What was measured:
[1] = tested on: medulloblastoma/primitive neuroectodermal tumor (cell line JRMB-6); details: single agent, 130 mg/kg IP daily for five consecutive days; cited from earlier work
in vivo [2] = details: female, CD1-nude, mouse, ip, 130 mg/kg
[3] = female, CD1-nude, mouse, in vivo
in vivo [4] = details: CD1-nude, mouse, Kp,uu (unbound ECF to plasma partition coefficient), mean (SD)
[5] = CD1-nude, mouse
in vitro = details: CD1, mouse, plasma
[6] = humans; cited from earlier work

In the case of O=P1(N(CCCl)CCCl)NCCCO1 (stereo not drawn) [cyclophosphamide], the Response rate [1] is given as 85%, the “Survival versus saline controls” value [1] is given as “statistically improved survival” and the AUC (in vivo [2]) is given as 113 µM·h. For the same compound, the “Central clearance CL, estimate (RSE%)” value [3] was 4.4 (3.7) L/h/kg, the “Central volume V, estimate (RSE%)” value [3] was 0.65 (5.0) L/kg and the “Inter-individual variability, central clearance η-CL, estimate (RSE%)” value [3] was 0.11 (17). The “Peripheral clearance Q, estimate (RSE%)” value [3] was 0.18 (4.3) L/h/kg, the “Peripheral volume Vp, estimate (RSE%)” value [3] was 0.062 (2.6) L/kg and the “Proportional residual variability εprop, estimate (RSE%)” value [3] was 0.24 (11). The “Mean observed maximum concentrations” value ([3]; ip, 130 mg/kg) was 352.9 µM, the Kp uu (in vivo [4]) was 0.22 and the “AUCECF,0-5h (unbound brain ECF exposure), mean (SD)” value ([5]; in vivo) was 6.3 (1.3) μM·h. The “AUCECF,0-5h (unbound tumor ECF exposure), mean (SD)” value ([5]; in vivo) was 4.0 (1.4) μM·h, the “AUCECF,0-5h (unbound tumor or brain ECF exposure), mean (SD)” value ([5]; in vivo) was 5.2 (1.8) μM·h and the “Influx clearance CLin, estimate (RSE%)” value ([5]; in vivo) was 4.3·10^−4 (16) L/h/kg. For the same compound, the “Inter-individual variability, influx clearance η-CLin, estimate (RSE%)” value ([5]; in vivo) was 0.31 (51), the “Proportional residual variability εprop, estimate (RSE%)” value ([5]; in vivo) was 0.45 (12) and the “Efflux clearance CLef, estimate (RSE%)” value ([5]; not told) was 2.4·10^−3 (7.0) L/h/kg. The “Inter-individual variability, efflux clearance η-CLef, estimate (RSE%)” value ([5]; not told) was 0.23 (22), the fraction unbound (in vitro) was 0.26 and the “FU (fraction unbound)” value [6] was 7-17%.
